Results as given in patent US11173156B2, “Solid forms of a kynurenine-3-monooxygenase inhibitor” (CHDI Foundation, Inc., priority 2019, dated 2021).
“Also recorded” adds a separate entry of the source.

Experiments:
Format in all cases: physicochemical
[1] = Physical stability on drying, ambient exposure or heating
[2] = Approximate aqueous solubility of salts/co-crystals (visual, solvent addition method); conditions: water, thermodynamic from solid, free acid solids retained from filtered aqueous phase, portion rinsed with water, read-out: solubility observed
[3] = as above; conditions: water; for solubility: estimated visually, solvent addition method
Experimental: (§1) A weighed sample was treated with aliquots of the test solvent at room temperature. The mixture was sonicated between additions to facilitate dissolution. Complete dissolution of the test material was determined by visual inspection. Solubility was estimated based on the total solvent used to provide complete dissolution. Some samples were then heated and observed visually for complete dissolution. The actual solubility may be greater than the value calculated because of the use of solvent aliquots that were too large or due to a slow rate of dissolution. […] If complete dissolution was achieved as a result of only one aliquot addition, the solubility is expressed as “greater than.”

[4] = Dynamic vapor sorption/desorption (DVS)
Experimental: Moisture sorption/desorption data were collected on a VTI SGA-100 Vapor Sorption Analyzer. NaCl and PVP were used as calibration standards. Samples were not dried prior to analysis. Sorption and desorption data were collected over a range from 5% to 95% RH at 10% RH increments under a nitrogen purge. The equilibrium criterion used for analysis was less than 0.0100% weight change in 5 minutes with a maximum equilibration time of 3 hours. Data were not corrected for the initial moisture content of the samples.

[5] = XRPD analysis of remaining solids from aqueous solubility assessments; conditions: solids recovered from mother liquor of aqueous solubility assessment
From the text: Compound I ethylenediamine A+B disproportionated, as peaks similar to those observed for Compound I free acid Material C were observed.

[6] = Deliquescence of salts/co-crystals during exposure to 75% RH; conditions: ambient temperature, 3 day exposure; for Observation (deliquescence): visual
Experimental: The salts identified from the salt/co-crystal screen of Compound I (see section 4 above) were assessed visually for deliquescence during exposure to 75% RH at ambient temperature (Table 5). […] The materials from these experiments were recovered and re-analyzed by XRPD to determine if changes in solid form occurred.

[7] = Water activity interconversion slurries; conditions: for water activity at which the form is stable / favored: competitive water activity slurries
From the text: The resulting solid phase was characterized by XRPD (Table 16). The experiments establish the physically stable form at various aw.
Water activity is related to relative humidity in that RH %=aw×100. Therefore, it is possible to directly relate the stability of an anhydrous/hydrate system in slurry experiments to solid state stability. Slurry technique at controlled water activities provides an accurate method of rapidly predicting the physically stable form in anhydrous/hydrate systems. This method is particularly valuable when relatively slow kinetics of conversion in the solid state prevents reaching true equilibrium in a reasonable timeframe, since solvent-mediated transformation accelerates the conversion process.

[8] = Slurry experiments (form stability); conditions: for relative stability of the form (in words): at the conditions evaluated
Experimental: Solutions were prepared by adding enough solids to a given solvent so that excess solids were present. The mixture was then agitated in a sealed vial at either ambient or an elevated temperature. After a given amount of time, the solids were isolated for analysis.
The formation and stability of solid forms of the sodium salt of Compound I was further evaluated via slurry experiments. The slurries were formed by combining Compound I sodium Pattern A and a solvent, and allowing the slurry to equilibrate at room temperature. If a free flowing slurry was not achieved, an additional amount of the respective solvent was added before the room temperature equilibration step. All slurries were isolated via centrifuge filtration after five days and twelve days of equilibration. The solids were analyzed by XRPD to check for pattern conversion (Table 13).

[9] = Solubility of Compound I sodium salt forms in solvents and binary solvent systems
Experimental: as §1

[10] = Stability at elevated temperatures (XRPD, HPLC); conditions: for HPLC: after storage at 60 ° C. (time point not given)
Experimental: The stability of Compound I sodium Patterns A, C, and D and Form B, at about 60° C. was evaluated. These forms were weighed into vials covered with a Kimwipe tissue and stored in an oven at 60° C. and ambient pressure. After three days and ten days of exposure, the solids were analyzed by XRPD to check for form conversion. […].

[11] = Stability at elevated temperatures (XRPD, HPLC)
[12] = Competitive slurry experiments
Experimental: Competitive slurry experiments were also conducted to evaluate form stability of the solid forms of the sodium salt of Compound I. Slurries were prepared by combining Compound I sodium Pattern A, Form B, Pattern C and Pattern D with a solvent, allowing the slurry to equilibrate with stirring at room temperature. The slurries were analyzed at three day and ten day time points, filtered, and analyzed by XRPD (Table 14).

Structure (SMILES): O=C(O)c1cc(-c2ccc(OC3CC3)c(Cl)c2)ncn1 [Compound I sodium Pattern F, 6-(3-chloro-4-cyclopropoxyphenyl)pyrimidine-4-carboxylic acid]
- effect of exposure to ambient ([1]; ambient for about 1 day): become disordered

Structure (SMILES): O=C(O)c1cc(-c2ccc(OC3CC3)c(Cl)c2)ncn1 [Compound I, 6-(3-chloro-4-cyclopropoxyphenyl)pyrimidine-4-carboxylic acid]
- solubility [2]: < 4000 µg/mL

Structure (SMILES): O=C(O)c1cc(-c2ccc(OC3CC3)c(Cl)c2)ncn1 [Compound I sodium Form B, 6-(3-chloro-4-cyclopropoxyphenyl)pyrimidine-4-carboxylic acid]
- aqueous solubility (in words) [3]: desirable aqueous solubility; also recorded: good aqueous solubility
- solubility [3]: 4000 µg/mL
- hygroscopicity by DVS analysis (in words) [4]: hygroscopic
- DVS weight loss upon equilibration at about 5% RH ([4]; about 5% RH): about 0.03%
- material recovered from the DVS analysis compared with starting material by XRPD ([4]; after DVS): substantially the same as the starting material
- DVS weight gain ([4]; from about 5 to about 95% RH): ~5.39%
- DVS weight loss ([4]; from about 95% to about 5% RH): ~5.14%
- gain observed by DVS analysis ([4]; sorption cycle): ~5 wt %
- Result (XRPD of remaining solids) [5]: remained unchanged by XRPD
- Result (XRPD of remaining solids) ([5]; listed as Sodium B): Sodium B
- Result (XRPD after exposure) ([6]; listed as Sodium B): Sodium B
- Observation (deliquescence) [6]: no deliquescence
- Results (XRPD form) ([7]; 0.33 aw, 16:84 H2O/DMF, 6 days): Form B
- Results (XRPD form) ([7]; 0.39 aw, 15:85 H2O/MeOH, 6 days): Form B
- Results (XRPD form) ([7]; 0.50 aw, 30:70 H2O/DMF, 6 days): Form B
- Results (XRPD form) ([7]; 0.58 aw, 6:94 H2O/Acetone, 6 days): Form B
- Results (XRPD form) ([7]; 0.70 aw, 50:50 H2O/DMF, 6 days): Form B
- Results (XRPD form) ([7]; 0.86 aw, 70:30 H2O/MeOH, 6 days): Form B
- Results (XRPD form) ([7]; 0.91 aw, 50:50 H2O/Acetone, 1 day): Form E
- Results (XRPD form) ([7]; 0.98 aw, 90:10 H2O/Acetone, 6 days): Form E
- water activity at which the form is stable / favored [7]: ≤ 0.86 aw
- stability in slurry (in words) ([8]; IPA and acetone): stable for about at least seven days
- relative stability of the form (in words) [8]: predominant and most thermodynamically stable form; also recorded: most thermodynamically stable anhydrate form
- solubility ([9]; Methanol, ambient): 6 mg/mL loading
- solubility ([9]; Water, ambient): 2 mg/mL loading
- solubility ([9]; organic solvent or mixture, thermodynamic from solid, Acetone, 55° C., read-out: Solubility): < 2000 µg/mL
- solubility ([9]; organic solvent or mixture, thermodynamic from solid, Acetone, ambient, read-out: Solubility): < 2000 µg/mL
- solubility ([9]; organic solvent or mixture, thermodynamic from solid, Acetone/water, 94:6 v/v, 55° C., read-out: Solubility): < 2000 µg/mL
- solubility ([9]; organic solvent or mixture, thermodynamic from solid, Acetone/water, 94:6 v/v, ambient, read-out: Solubility): < 2000 µg/mL
- solubility ([9]; organic solvent or mixture, thermodynamic from solid, Acetonitrile, 55° C., read-out: Solubility): < 2000 µg/mL
- solubility ([9]; organic solvent or mixture, thermodynamic from solid, Acetonitrile, ambient, read-out: Solubility): < 2000 µg/mL
- solubility ([9]; organic solvent or mixture, thermodynamic from solid, Acetonitrile/water, 83:17 v/v, ambient, read-out: Solubility): 2000 µg/mL
- solubility ([9]; organic solvent or mixture, thermodynamic from solid, Ethanol, 55° C., read-out: Solubility): < 2000 µg/mL
- solubility ([9]; organic solvent or mixture, thermodynamic from solid, Ethanol, ambient, read-out: Solubility): < 2000 µg/mL
- solubility ([9]; organic solvent or mixture, thermodynamic from solid, Ethanol/water, 88:12 v/v, 55° C., read-out: Solubility): ~2000 µg/mL
- solubility ([9]; organic solvent or mixture, thermodynamic from solid, Ethanol/water, 88:12 v/v, ambient, read-out: Solubility): ~2000 µg/mL
- solubility ([9]; organic solvent or mixture, thermodynamic from solid, Isopropanol, 55° C., read-out: Solubility): < 2000 µg/mL
- solubility ([9]; organic solvent or mixture, thermodynamic from solid, Isopropanol, ambient, read-out: Solubility): < 2000 µg/mL
- solubility ([9]; organic solvent or mixture, thermodynamic from solid, Isopropanol/water, 91:9 v/v, 55° C., read-out: Solubility): < 2000 µg/mL
- solubility ([9]; organic solvent or mixture, thermodynamic from solid, Isopropanol/water, 91:9 v/v, ambient, read-out: Solubility): < 2000 µg/mL
- solubility ([9]; thermodynamic from solid, Water, ambient, read-out: Solubility): ≥ 6000 µg/mL
- chemical and physical form changes after storing at elevated temperatures ([10]; about 60° C. and about 78° C.): No chemical and physical form changes were observed
- HPLC [10]: >99.9 % AUC

Structure (SMILES): O=C(O)c1cc(-c2ccc(OC3CC3)c(Cl)c2)ncn1 [Compound I potassium Material A, 6-(3-chloro-4-cyclopropoxyphenyl)pyrimidine-4-carboxylic acid]
- aqueous solubility (in words) [3]: suitable aqueous solubility
- solubility ([3]; listed as Potassium A): <4000 µg/mL
- Result (XRPD of remaining solids) [5]: converted to a new material
- Result (XRPD of remaining solids) ([5]; listed as Potassium A): broad reflections
- Observation (deliquescence) [6]: no deliquescence

Structure (SMILES): O=C(O)c1cc(-c2ccc(OC3CC3)c(Cl)c2)ncn1 [Compound I sodium Form E, 6-(3-chloro-4-cyclopropoxyphenyl)pyrimidine-4-carboxylic acid]
- Results (XRPD form) ([11]; 65° C., after 20 min and after 50 min): Form B
- Results (XRPD form) ([11]; 78° C., 18 days): Form B
- Results (XRPD form) ([11]; 205° C., briefly): Form B + peaks
- Results (XRPD form) ([11]; under N2: heat to 175° C. then cooled to 150° C., held for 10 minutes): Form B + peaks
- water activity at which the form is stable / favored [7]: ≥ 0.91 aw
- form conversion in competitive slurry ([12]; acetone and water): converted to Compound I sodium Form B

Structure (SMILES): O=C(O)c1cc(-c2ccc(OC3CC3)c(Cl)c2)ncn1 [Compound I sodium Pattern D, 6-(3-chloro-4-cyclopropoxyphenyl)pyrimidine-4-carboxylic acid]
- form conversion in slurry / trituration ([8]; acetone and/or isopropanol (trituration, single form or competitive slurry)): converted to Compound I sodium Form B
- relative stability of the form (in words) [8]: not stable
- form conversion in competitive slurry ([12]; water): Compound I sodium Form B
- chemical and physical form changes after storing at elevated temperature ([10]; about 60° C.): No chemical and physical form changes were observed
- HPLC [10]: >99.9 % AUC

Structure (SMILES): O=C(O)c1cc(-c2ccc(OC3CC3)c(Cl)c2)ncn1 [Compound I benzathine Form A, 6-(3-chloro-4-cyclopropoxyphenyl)pyrimidine-4-carboxylic acid]
- aqueous solubility (in words) [3]: poor low aqueous solubility
- solubility ([3]; listed as Benzathine A): <7000 µg/mL
- Result (XRPD of remaining solids) [5]: remained unchanged by XRPD
- Result (XRPD of remaining solids) ([5]; listed as Benzathine A): Benzathine A
- Result (XRPD after exposure) ([6]; listed as Benzathine A): Benzathine A
- Observation (deliquescence) [6]: no deliquescence

Structure (SMILES): O=C(O)c1cc(-c2ccc(OC3CC3)c(Cl)c2)ncn1 [Compound I sodium amorphous, 6-(3-chloro-4-cyclopropoxyphenyl)pyrimidine-4-carboxylic acid]
- form conversion on heating ([1]; heated to about 150° C.): converts to Compound I sodium Form B
